Results published in ChEMBL document CHEMBL1145498, “A systematic interaction map of validated kinase inhibitors with Ser/Thr kinases” (Proc Natl Acad Sci U S A, 2007).

Columns and labels:
[1] = biological target: T1, Serine/threonine-protein kinase VRK1 (Homo sapiens) (UniProt Q99986)
T1 sequence (whole entry): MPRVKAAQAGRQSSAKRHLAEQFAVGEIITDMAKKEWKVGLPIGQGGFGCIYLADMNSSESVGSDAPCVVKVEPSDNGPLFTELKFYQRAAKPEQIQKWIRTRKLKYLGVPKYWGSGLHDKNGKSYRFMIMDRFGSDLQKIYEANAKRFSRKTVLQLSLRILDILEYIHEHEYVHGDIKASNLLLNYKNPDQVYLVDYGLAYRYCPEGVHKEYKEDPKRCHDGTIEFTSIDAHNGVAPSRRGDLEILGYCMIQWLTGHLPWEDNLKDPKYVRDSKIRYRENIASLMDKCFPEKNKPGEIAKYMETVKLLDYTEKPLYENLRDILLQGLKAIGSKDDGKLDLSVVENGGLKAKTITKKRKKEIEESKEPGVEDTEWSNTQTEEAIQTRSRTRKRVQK

[2] = biological target: T2, Myotonin-protein kinase (Homo sapiens) (UniProt Q09013)
T2 sequence (whole entry): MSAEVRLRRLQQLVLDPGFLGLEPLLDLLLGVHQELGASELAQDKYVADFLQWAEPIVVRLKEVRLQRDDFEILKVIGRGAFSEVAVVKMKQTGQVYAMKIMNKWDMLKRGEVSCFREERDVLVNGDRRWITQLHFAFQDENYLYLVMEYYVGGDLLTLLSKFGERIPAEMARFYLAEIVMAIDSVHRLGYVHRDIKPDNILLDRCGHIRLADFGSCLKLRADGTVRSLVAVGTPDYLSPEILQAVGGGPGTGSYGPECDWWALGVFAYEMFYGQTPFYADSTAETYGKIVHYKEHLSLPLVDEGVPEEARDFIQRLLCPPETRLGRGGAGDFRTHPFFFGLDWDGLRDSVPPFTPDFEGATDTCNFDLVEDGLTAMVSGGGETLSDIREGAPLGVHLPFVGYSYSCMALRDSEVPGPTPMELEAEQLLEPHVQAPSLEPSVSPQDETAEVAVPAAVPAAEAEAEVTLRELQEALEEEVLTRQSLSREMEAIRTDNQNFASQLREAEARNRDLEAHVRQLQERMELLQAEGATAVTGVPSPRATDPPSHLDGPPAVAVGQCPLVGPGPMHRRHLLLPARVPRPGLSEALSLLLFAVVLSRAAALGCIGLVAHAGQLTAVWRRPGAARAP

[3] = biological target: T3, Serine/threonine-protein kinase 17A (Homo sapiens) (UniProt Q9UEE5)
T3 sequence (whole entry): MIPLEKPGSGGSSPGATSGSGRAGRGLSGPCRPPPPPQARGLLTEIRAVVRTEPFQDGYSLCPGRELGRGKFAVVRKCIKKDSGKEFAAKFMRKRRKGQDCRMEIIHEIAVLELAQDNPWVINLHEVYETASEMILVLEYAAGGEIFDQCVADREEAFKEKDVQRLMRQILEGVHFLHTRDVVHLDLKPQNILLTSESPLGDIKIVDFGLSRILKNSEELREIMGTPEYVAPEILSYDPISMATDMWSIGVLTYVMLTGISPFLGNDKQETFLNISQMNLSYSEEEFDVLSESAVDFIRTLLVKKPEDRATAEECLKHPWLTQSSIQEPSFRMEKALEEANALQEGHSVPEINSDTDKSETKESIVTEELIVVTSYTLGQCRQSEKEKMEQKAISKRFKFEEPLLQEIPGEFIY

[4] = biological target: T4, Mitogen-activated protein kinase kinase kinase 5 (Homo sapiens) (UniProt Q99683)
T4 sequence (whole entry): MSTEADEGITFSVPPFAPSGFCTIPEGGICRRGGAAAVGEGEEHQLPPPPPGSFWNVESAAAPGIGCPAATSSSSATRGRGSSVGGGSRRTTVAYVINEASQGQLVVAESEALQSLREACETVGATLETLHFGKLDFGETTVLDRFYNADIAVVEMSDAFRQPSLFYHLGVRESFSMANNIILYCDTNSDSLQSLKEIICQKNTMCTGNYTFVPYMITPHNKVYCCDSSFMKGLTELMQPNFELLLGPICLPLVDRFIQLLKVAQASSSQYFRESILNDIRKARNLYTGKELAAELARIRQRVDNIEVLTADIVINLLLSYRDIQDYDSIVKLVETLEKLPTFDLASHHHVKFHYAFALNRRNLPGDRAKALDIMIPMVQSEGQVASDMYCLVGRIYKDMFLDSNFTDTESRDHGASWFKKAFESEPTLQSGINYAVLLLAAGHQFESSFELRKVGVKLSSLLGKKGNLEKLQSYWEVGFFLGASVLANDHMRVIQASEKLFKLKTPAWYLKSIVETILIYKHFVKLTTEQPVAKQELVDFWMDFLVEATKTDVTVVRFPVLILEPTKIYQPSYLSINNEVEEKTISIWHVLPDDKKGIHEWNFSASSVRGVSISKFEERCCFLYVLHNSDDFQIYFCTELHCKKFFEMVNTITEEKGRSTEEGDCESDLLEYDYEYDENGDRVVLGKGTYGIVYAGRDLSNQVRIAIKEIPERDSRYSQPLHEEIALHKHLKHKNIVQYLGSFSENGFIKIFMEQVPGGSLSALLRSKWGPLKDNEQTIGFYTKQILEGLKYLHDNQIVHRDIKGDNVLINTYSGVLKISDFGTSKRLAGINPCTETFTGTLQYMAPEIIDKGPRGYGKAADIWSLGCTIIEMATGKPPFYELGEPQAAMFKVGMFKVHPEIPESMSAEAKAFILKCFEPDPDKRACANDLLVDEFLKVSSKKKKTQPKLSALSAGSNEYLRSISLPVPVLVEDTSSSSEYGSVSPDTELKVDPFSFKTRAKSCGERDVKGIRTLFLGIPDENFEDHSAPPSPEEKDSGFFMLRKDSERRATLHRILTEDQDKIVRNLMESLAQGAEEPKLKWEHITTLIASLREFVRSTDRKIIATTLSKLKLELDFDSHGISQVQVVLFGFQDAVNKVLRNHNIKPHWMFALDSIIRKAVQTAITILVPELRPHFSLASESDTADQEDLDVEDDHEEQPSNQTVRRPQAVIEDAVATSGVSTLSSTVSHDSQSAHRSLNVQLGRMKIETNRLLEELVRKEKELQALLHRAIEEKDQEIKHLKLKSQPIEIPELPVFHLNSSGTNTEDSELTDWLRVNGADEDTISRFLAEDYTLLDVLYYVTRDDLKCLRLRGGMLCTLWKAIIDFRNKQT

[5] = biological target: Serine/threonine-protein kinase Chk2 (Homo sapiens, UniProt O96017)
[6] = biological target: Serine/threonine-protein kinase pim-1 (Homo sapiens) (UniProt P11309)
Sequence of Serine/threonine-protein kinase pim-1 (Homo sapiens) (P11309 whole entry, looked up): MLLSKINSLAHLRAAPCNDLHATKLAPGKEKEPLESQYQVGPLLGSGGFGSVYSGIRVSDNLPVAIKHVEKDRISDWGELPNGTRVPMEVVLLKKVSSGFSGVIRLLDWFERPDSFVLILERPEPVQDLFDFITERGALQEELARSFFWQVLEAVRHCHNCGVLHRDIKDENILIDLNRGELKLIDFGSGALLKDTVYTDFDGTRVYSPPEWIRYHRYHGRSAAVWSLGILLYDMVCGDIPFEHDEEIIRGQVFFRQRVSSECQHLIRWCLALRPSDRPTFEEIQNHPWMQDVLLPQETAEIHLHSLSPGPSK

Sequence of Serine/threonine-protein kinase Chk2 (O96017 whole entry): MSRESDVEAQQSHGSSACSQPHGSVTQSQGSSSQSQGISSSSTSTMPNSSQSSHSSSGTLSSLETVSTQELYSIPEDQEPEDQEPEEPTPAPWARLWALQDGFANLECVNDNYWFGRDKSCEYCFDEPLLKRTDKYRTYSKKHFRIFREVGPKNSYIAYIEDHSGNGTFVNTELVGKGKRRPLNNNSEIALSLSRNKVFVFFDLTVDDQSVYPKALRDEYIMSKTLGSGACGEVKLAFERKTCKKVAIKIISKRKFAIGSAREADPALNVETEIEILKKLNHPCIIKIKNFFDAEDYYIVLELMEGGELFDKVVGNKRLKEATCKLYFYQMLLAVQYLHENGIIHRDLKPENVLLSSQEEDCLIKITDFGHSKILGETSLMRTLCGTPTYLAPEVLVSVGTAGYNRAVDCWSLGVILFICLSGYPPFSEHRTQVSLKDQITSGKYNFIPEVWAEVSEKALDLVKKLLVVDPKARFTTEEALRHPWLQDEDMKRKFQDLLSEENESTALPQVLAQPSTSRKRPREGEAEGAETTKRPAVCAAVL

Compound	ΔTm [1]	ΔTm [2]	ΔTm [3]	ΔTm [4]	ΔTm [5]	ΔTm [6]
O=C1C=C2C(=Nc3c2c2c(c4c3=NC3=C4CCC=C3)C=NC=2)CC1	1.1 °C	5.1 °C	2.6 °C	5.7 °C	7.9 °C	7.5 °C
CN[C@@H]1CC2O[C@@](C)([C@@H]1OC)n1c3ccccc3c3c4c(c5c6ccccc6n2c5c31)C(=O)NC4	2.2 °C	14.1 °C	17.4 °C	16.3 °C	–	–
Oc1ccc(-c2nc(-c3ccc(F)cc3)c(-c3ccncc3)[nH]2)cc1	0 °C	0.2 °C	1 °C	0.3 °C	-0.2 °C	-1.4 °C
CN1CCC(Nc2ncc3ncnc(Nc4ccc(F)c(Cl)c4)c3n2)CC1 [FALNIDAMOL]	–	1.4 °C	–	1.3 °C	0.2 °C	5.2 °C
CC(C)N(CCO)c1nc(Nc2cccc(Cl)c2)c2ncn(C(C)C)c2n1	0.5 °C	0.2 °C	-0.1 °C	0.4 °C	0.6 °C	-1.1 °C
Nc1cc2ncnc(Nc3cccc(Br)c3)c2cc1N	-0.3 °C	0.1 °C	7.7 °C	0.4 °C	1.8 °C	3.4 °C
O=C1Nc2ccccc2/C1=C1/Nc2ccccc2/C1=N\O	1.7 °C	2.8 °C	9.9 °C	5.6 °C	4.9 °C	4.5 °C
O=C(O)/C=C/c1cc(CO)ccc1CO	0.4 °C	-0.1 °C	0.6 °C	1.2 °C	0.6 °C	0.6 °C
CC(C)c1cc(/C=C(\C#N)C(=O)NCCCc2ccccc2)cc(C(C)C)c1O	1 °C	1 °C	0.8 °C	0.3 °C	-0.1 °C	0.8 °C
O=C1c2ccccc2-c2n[nH]c3cccc1c23	0 °C	0.3 °C	10 °C	8.8 °C	6 °C	3.6 °C
NC1=NC(=O)/C(=C2\CCNC(=O)c3[nH]c(Br)cc32)N1 [HYMENIALDISINE]	2 °C	2.1 °C	14.8 °C	10.4 °C	8.2 °C	0.7 °C
Nc1nccc(-c2c(-c3ccc(F)cc3)ncn2C2CCNCC2)n1	1.1 °C	0.6 °C	0.4 °C	0.3 °C	0.1 °C	-0.1 °C
CC(C)(C)c1cc(C=C2C(=O)C=CC2=O)cc(C(C)(C)C)c1O	-0.6 °C	1.4 °C	-5.3 °C	0.1 °C	1.8 °C	-1.1 °C
C[C@@H](N)[C@H]1CC[C@H](C(=O)Nc2ccncc2)CC1	0.9 °C	0.3 °C	1.3 °C	1.1 °C	-0.7 °C	0 °C
O=C(O)c1cc(NCc2cc(O)ccc2O)ccc1O	-0.2 °C	0.3 °C	0.1 °C	-0.1 °C	0 °C	0 °C
O=C1Cc2c([nH]c3ccc([N+](=O)[O-])cc23)-c2ccccc2N1	0.2 °C	1.9 °C	11.4 °C	0.9 °C	7.8 °C	3 °C
O=C1Nc2ccc(I)cc2/C1=C1/Nc2ccccc2/C1=N\O	0.1 °C	1 °C	7 °C	5.7 °C	1.9 °C	1.7 °C
CCN(CC)CCNC(=O)c1c(C)[nH]c(/C=C2\C(=O)Nc3ccc(F)cc32)c1C	6.8 °C	2.7 °C	8.3 °C	-0.6 °C	12.9 °C	2.3 °C
N#C/C(=C\c1ccc(O)c(O)c1)C(=O)Nc1ccccc1	0.2 °C	-0.1 °C	2.8 °C	-0.2 °C	0.1 °C	1.6 °C
COC1=C2C[C@@H](C)C[C@H](OC)[C@H](O)[C@@H](C)/C=C(\C)[C@H](OC(N)=O)[C@@H](OC)/C=C\C=C(/C)C(=O)NC(=CC1=O)C2=O	-0.1 °C	-0.3 °C	0.3 °C	-0.5 °C	0.2 °C	-0.2 °C
O=C(O)Cc1ccc(O)c([N+](=O)[O-])c1	0.4 °C	1.6 °C	-0.5 °C	-0.7 °C	-0.8 °C	0.2 °C
Cc1cncc2cccc(S(=O)(=O)N3CCCNC[C@@H]3C)c12	0.6 °C	0.4 °C	2 °C	1.8 °C	1.5 °C	0.7 °C
O=C1Nc2cc(Br)ccc2/C1=C1/Nc2ccccc2/C1=N\O	1 °C	0.3 °C	1.9 °C	-1 °C	2.3 °C	0.1 °C
O=c1sn(Cc2ccccc2)c(=S)n1Cc1ccccc1	0.6 °C	0.5 °C	0.2 °C	0.2 °C	0.3 °C	-0.2 °C
Clc1ccc(Nc2nnc(Cc3ccncc3)c3ccccc23)cc1	–	-0.5 °C	–	-0.1 °C	0.2 °C	-0.2 °C
Cc1nc(Nc2ncc(C(=O)Nc3c(C)cccc3Cl)s2)cc(N2CCN(CCO)CC2)n1	–	4.6 °C	–	0.2 °C	1.2 °C	0.3 °C
COc1cc2ncnc(Nc3cccc(O)c3)c2cc1OC	–	0.9 °C	3.7 °C	1 °C	1.8 °C	0 °C
